According to US20210213049A1, “METHOD AND MOLECULAR HYDROGEN-CONTAINING COMPOSITION FOR PROMOTION OF POSTOPERATIVE RECOVERY” (MiZ Company Limited, priority 2020, published 2021):

Tests used:
[1] = stated as known; cited from earlier work
[2] = test system: person who underwent hip replacement surgery because of coxarthrosis
Description: A person underwent hip replacement surgery because of coxarthrosis (their right leg being […] shorter). The surgery was initiated at 10:00 a.m. on Jul. 10, 2019 and completed around 11 o'clock a.m. on the same day.
Initially, use of crutches for three months was planned as in usual cases, based on the anticipated postoperative course (that is, the patient was expected to use both crutches for the first 1.5 months and one crutch for the subsequent 1.5 months).

Structure (SMILES)	superoxide eliminating effect compared with H2 [1]	time after the surgery at which the patient did not need to use crutches ([2]; hydrogen gas approximately 5.0%, approximately 200 mL/min, inhaled three to four hours per day from immediately after surgery, with rehabilitation, crutches for three months had been planned) [days]	postoperative recovery ([2]; hydrogen inhalation from immediately after hip replacement surgery, approximately 5.0% hydrogen, three to four hours per day, with rehabilitation)	discharge from hospital (date) ([2]; surgery on Jul. 10, 2019, hydrogen inhalation from immediately after the surgery)
[2H][2H] [D2, deuterium]	stronger superoxide eliminating effect than that of H2	–	–	–
[HH] [hydrogen, molecular hydrogen]	–	13	achieved early postoperative recovery	July 20
